Measurements published in patent publication US20090117205A1, “Quinolone-containing medicinal composition” (Daiichi Pharmaceutical CO., LTD, priority 2004, published 2009).
In brackets after ≈: the same amount, converted by molar mass. Like-named read-outs stand apart in the source and are kept apart here.

Experiments:
Format in all cases: physicochemical
[1] = Solubility of Compound (1) in water with change in pH
Method: Change in solubility with the change in pH of the drug solution of the Compound (1) was measured by the method commonly used in the art.

[2] = Evaluation of the concentration of the drug solution used for the lyophilization (cake formation)
[3] = Stability test of the lyophilized product produced from drug solution of different pH
From the text: Lyophilized products were produced from the drug solution of different pH according to the evaluation of pH of the drug solution used for the lyophilization (1) to evaluate the stability of the Compound (1).

[4] = lyophilized product from drug solution pH 2.5, 60° C., 1 W
[5] = lyophilized product from drug solution pH 2.5, 60° C., 2 W
[6] = lyophilized product from drug solution pH 2.5, Initial
[7] = lyophilized product from drug solution pH 3.5, 60° C., 1 W
[8] = lyophilized product from drug solution pH 3.5, 60° C., 2 W
[9] = lyophilized product from drug solution pH 3.5, Initial
[10] = lyophilized product from drug solution pH 4.5, 60° C., 1 W
[11] = lyophilized product from drug solution pH 4.5, 60° C., 2 W
[12] = lyophilized product from drug solution pH 4.5, Initial

For COc1c(N2CC[C@@H](C3(N)CC3)C2)ccc2c(=O)c(C(=O)O)cn([C@@H]3C[C@@H]3F)c12 [Compound (1), 7-[3-(R)-(1-aminocyclopropyl)pyrrolidine-1-yl]-1-[2-(S)-fluoro-1-(R)-cyclopropyl]-1,4-dihydro-8-methoxy-4-oxoquinoline-3-carboxylic acid], the solubility at 1 week ([1]; aqueous buffer, 5° C., pH 3.5, after 1 W) was at most 19.6 mg/mL, the solubility at 0 week ([1]; aqueous buffer, 5° C., pH 3.5, immediately after preparation) was at most 20.1 mg/mL and the solubility at 1 week ([1]; aqueous buffer, 5° C., pH 4.0, after 1 W) was 19 mg/mL (≈ 47.3 mM). It also gave a solubility at 0 week ([1]; aqueous buffer, 5° C., pH 4.0, immediately after preparation) of at most 20.1 mg/mL, a solubility at 1 week ([1]; aqueous buffer, 5° C., pH 4.5, after 1 W) of 18.8 mg/mL (≈ 46.8 mM) and a solubility at 0 week ([1]; aqueous buffer, 5° C., pH 4.5, immediately after preparation) of at most 20 mg/mL. The solubility at 1 week ([1]; aqueous buffer, 5° C., pH 5.0, after 1 W) was 18.4 mg/mL (≈ 45.8 mM), the solubility at 1 week ([1]; aqueous buffer, 5° C., pH 5.5, after 1 W) was 5.4 mg/mL (≈ 13.5 mM) and the solubility at 1 week ([1]; aqueous buffer, 5° C., pH 6.0, after 1 W) was 0.7 mg/mL (≈ 1.74 mM). For the same molecule, the solubility at 1 week ([1]; aqueous buffer, 25° C., pH 3.5, after 1 W) was at most 20.1 mg/mL, the solubility at 0 week ([1]; aqueous buffer, 25° C., pH 3.5, immediately after preparation) was at most 20.1 mg/mL and the solubility at 1 week ([1]; aqueous buffer, 25° C., pH 4.0, after 1 W) was 19.6 mg/mL (≈ 48.8 mM). It also gave a solubility at 0 week ([1]; aqueous buffer, 25° C., pH 4.0, immediately after preparation) of at most 20.1 mg/mL, a solubility at 1 week ([1]; aqueous buffer, 25° C., pH 4.5, after 1 W) of 20.1 mg/mL (≈ 50.1 mM) and a solubility at 0 week ([1]; aqueous buffer, 25° C., pH 4.5, immediately after preparation) of at most 20.1 mg/mL. It also gave a solubility at 1 week ([1]; aqueous buffer, 25° C., pH 5.0, after 1 W) of 18.7 mg/mL (≈ 46.6 mM), a solubility at 1 week ([1]; aqueous buffer, 25° C., pH 5.5, after 1 W) of 4.8 mg/mL (≈ 12 mM) and a solubility at 1 week ([1]; aqueous buffer, 25° C., pH 6.0, after 1 W) of 0.7 mg/mL (≈ 1.74 mM). The solubility ([1]; aqueous buffer, pH up to pH 5, read-out: Concentration that can be attained in the solution) was at least 10 mg/mL, the solubility ([1]; pH 4.5, aqueous buffer, pH up to 4.5, read-out: Concentration that can be attained in the solution) was at least 20 mg/mL and the “Cake formation (number of vials with cake formation/number of vials tested)” value ([2]; drug solution 1.25 mg/mL) was 0/5. The “Cake formation (number of vials with cake formation/number of vials tested)” value ([2]; drug solution 2.5 mg/mL) was 4/5, the “Cake formation (number of vials with cake formation/number of vials tested)” value ([2]; drug solution 5 mg/mL) was 4/5 and the “Cake formation (number of vials with cake formation/number of vials tested)” value ([2]; drug solution 10 mg/mL) was 5/5. For the same molecule, the “Cake formation (number of vials with cake formation/number of vials tested)” value ([2]; drug solution 15 mg/mL) was 5/5, the “Cake formation (number of vials with cake formation/number of vials tested)” value ([2]; drug solution 20 mg/mL) was 5/5 and the “Stability of the Compound (1) in the lyophilized products” value ([3]; drug solution at a pH in the range of 2.5 to 4.5) was “sufficient stability”. For the same molecule, the Appearance [3, 4] was “Yellow”, the “Content in relation to Initial amount (%)” value [3, 4] was 100.8% and the “Content in relation to Nominal amount (%)” value [3, 4] was 96.0%. For the same molecule, the “Total amount of related substance (%)” value [3, 4] was 0.95%, the pH [3, 4] was 2.97 and the Appearance [3, 5] was “Yellow”. For the same molecule, the “Content in relation to Initial amount (%)” value [3, 5] was 96.5%, the “Content in relation to Nominal amount (%)” value [3, 5] was 91.9% and the “Total amount of related substance (%)” value [3, 5] was 1.10%. For the same molecule, the pH [3, 5] was 3.05, the Appearance [3, 6] was “Yellow” and the “Content in relation to Initial amount (%)” value [3, 6] was 100.0%. For the same molecule, the “Content in relation to Nominal amount (%)” value [3, 6] was 95.3%, the “Total amount of related substance (%)” value [3, 6] was 0.92% and the pH [3, 6] was 2.89. For the same molecule, the Appearance [3, 7] was “Yellow”, the “Content in relation to Initial amount (%)” value [3, 7] was 99.4% and the “Content in relation to Nominal amount (%)” value [3, 7] was 96.0%. The “Total amount of related substance (%)” value [3, 7] was 0.96%, the pH [3, 7] was 3.81 and the Appearance [3, 8] was “Yellow”. The “Content in relation to Initial amount (%)” value [3, 8] was 99.7%, the “Content in relation to Nominal amount (%)” value [3, 8] was 96.2% and the “Total amount of related substance (%)” value [3, 8] was 1.17%. The pH [3, 8] was 3.86, the Appearance [3, 9] was “Yellow” and the “Content in relation to Initial amount (%)” value [3, 9] was 100.0%. For the same molecule, the “Content in relation to Nominal amount (%)” value [3, 9] was 96.5%, the “Total amount of related substance (%)” value [3, 9] was 0.93% and the pH [3, 9] was 3.73. The Appearance [3, 10] was “Yellow”, the “Content in relation to Initial amount (%)” value [3, 10] was 97.8% and the “Content in relation to Nominal amount (%)” value [3, 10] was 91.1%. The “Total amount of related substance (%)” value [3, 10] was 1.13%, the pH [3, 10] was 4.51 and the Appearance [3, 11] was “Yellow”. The “Content in relation to Initial amount (%)” value [3, 11] was 100.5%, the “Content in relation to Nominal amount (%)” value [3, 11] was 93.5% and the “Total amount of related substance (%)” value [3, 11] was 1.31%. For the same molecule, the pH [3, 11] was 4.53, the Appearance [3, 12] was “Yellow” and the “Content in relation to Initial amount (%)” value [3, 12] was 100.0%. The “Content in relation to Nominal amount (%)” value [3, 12] was 93.1%, the “Total amount of related substance (%)” value [3, 12] was 0.93% and the pH [3, 12] was 4.47.
